In patent US20260325533A1, “CDK INHIBITOR COMPOUNDS” (ALEKSIA THERAPEUTICS, INC., priority 2023, published 2026) one finds IC50 data, which are given here for 15 molecules.

Read-outs that look alike come from different tables or passages of the source. Some results are limits rather than exact numbers.

What all share (assay type): biochemical
The target in one assay is CDK2/CCNE1 (Homo sapiens, UniProt P24941). Kind of assay: CDK2 homogeneous time-resolved fluorescence (HTRF) kinase assay. The note with it: CDK2/CCNE. In a few lines:
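TR-FRET read-out (665 nm, or 665/615 ratio) of Eu-antibody detection of phospho-4E-BP1 (Thr37/46) ULight peptide. Enzyme 3 nM, ATP 1 mM, peptide 50 nM, 1% DMSO; 60 min reaction at 23 °C after 20 min compound preincubation. IC50 from 11-point half-log titrations, top typically 10 μM.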
A general note: Time-resolved FRET reads energy transfer from a long-lived donor to a nearby acceptor.

In another assay the target is CDK1/CCNB1 (Homo sapiens, UniProt P06493). Kind of assay: CDK1 homogeneous time-resolved fluorescence (HTRF) kinase assay. The settings on record: CDK1/CCNB. In short, it runs like this:
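HTRF assay with 0.5 nM CDK1/CCNB1, 1 mM ATP, 50 nM ULight-eIF4E-BP1 (Thr37/46) peptide; compound preincubated 20 min, reaction 60 min at 23 °C, EDTA stop, Eu-anti-phospho antibody detection. 11-point half-log titration from 10 μM, 1% DMSO; IC50 from 665 nm or 665/615 signal.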

A further assay addresses CDK4/CCND3 (Homo sapiens, UniProt P11802). Kind of assay: CDK4 homogeneous time-resolved fluorescence (HTRF) kinase assay. The settings on record: CDK4/CCND. In a few lines:
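IC50 values were derived from 11-point half-log dilutions, usually starting at 10 μM. Compound was first held for 20 min at 23 °C with 1.5 nM CDK4/CCND3. 1 mM ATP and 50 nM ULight-eIF4E-BP1 (Thr37/46) substrate were then added for 60 min, and the TR-FRET 665 nm signal was measured after EDTA stop and Eu-anti-phospho-4E-BP1 detection.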

The target of the next assay is CDK6/CCND1 (Homo sapiens, UniProt Q00534). Briefly: CDK6 homogeneous time-resolved fluorescence (HTRF) kinase assay. The note with it: CDK6/CCND. In a few lines: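 Recombinant CDK6/CCND1 (1 nM final) was preincubated with compound for 20 min at 23 °C in HEPES buffer with MgCl2, EGTA, DTT and Tween 20. Kinase reaction then ran 60 min at 23 °C with 1 mM ATP and 50 nM ULight-4E-BP1 (Thr37/46) peptide, and was stopped with EDTA.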

Where [1] appears, read: <25 nM, read-out: CDK2/CCNE IC50, <25 nM.
[2] abbreviates: >250 nM, read-out: CDK1/CCNB IC50 >250 nM.
Setting [3] is: 25-250 nM, read-out: CDK4/CCND IC50, 25-250 nM.
Where [4] appears, read: 25-250 nM, 1 mM ATP, read-out: CDK6/CCND IC50, 25-250 nM.
The mark [5] stands for this setting: 25-250 nM, read-out: CDK1/CCNB IC50, 25-250 nM.
Where [6] appears, read: >250 nM, read-out: CDK4/CCND IC50, >250 nM.
Setting [7] is: >250 nM, 1 mM ATP, read-out: CDK6/CCND IC50, >250 nM.
Setting [8] is: 25-250 nM, read-out: CDK2/CCNE IC50, 25-250 nM.
Setting [9] is: x = IC50 <25 nM, read-out: CDK2/CCNE IC50 (<25 nM).
The mark [10] stands for this setting: x = IC50 25-250 nM, read-out: CDK1/CCNB IC50 (25-250 nM).
Where [11] appears, read: x = IC50 25-250 nM, read-out: CDK4/CCND IC50 (25-250 nM).
Where [12] appears, read: x = IC50 >250 nM, read-out: CDK6/CCND IC50 (>250 nM column).

Sequence of CDK4/CCND3 (P11802 whole entry): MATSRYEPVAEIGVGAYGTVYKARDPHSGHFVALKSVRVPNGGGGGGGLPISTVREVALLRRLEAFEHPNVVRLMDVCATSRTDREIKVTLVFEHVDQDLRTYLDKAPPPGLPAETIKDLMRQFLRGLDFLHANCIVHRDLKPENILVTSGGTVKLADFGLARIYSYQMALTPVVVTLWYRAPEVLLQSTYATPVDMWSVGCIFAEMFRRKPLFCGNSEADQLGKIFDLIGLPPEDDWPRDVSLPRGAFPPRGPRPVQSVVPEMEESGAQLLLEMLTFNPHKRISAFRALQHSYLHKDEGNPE
Sequence of CDK4/CCND3 (P30281 whole entry partner): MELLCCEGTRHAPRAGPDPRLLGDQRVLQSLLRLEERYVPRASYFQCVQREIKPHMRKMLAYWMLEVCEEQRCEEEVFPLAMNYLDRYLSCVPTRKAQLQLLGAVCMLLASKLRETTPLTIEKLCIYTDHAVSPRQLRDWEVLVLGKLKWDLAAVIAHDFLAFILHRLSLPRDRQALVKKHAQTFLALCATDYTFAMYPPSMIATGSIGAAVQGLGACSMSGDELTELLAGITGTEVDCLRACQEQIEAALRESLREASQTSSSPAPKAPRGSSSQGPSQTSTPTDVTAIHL
Sequence of CDK1/CCNB1 (P06493 whole entry): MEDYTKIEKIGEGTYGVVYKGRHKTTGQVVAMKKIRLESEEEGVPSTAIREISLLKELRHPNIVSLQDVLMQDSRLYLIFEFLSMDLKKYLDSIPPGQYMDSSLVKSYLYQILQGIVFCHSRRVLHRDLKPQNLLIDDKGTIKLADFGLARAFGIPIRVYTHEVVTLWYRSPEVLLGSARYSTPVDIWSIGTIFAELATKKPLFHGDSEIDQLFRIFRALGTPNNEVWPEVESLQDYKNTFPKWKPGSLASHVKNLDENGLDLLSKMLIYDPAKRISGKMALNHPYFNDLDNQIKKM
Sequence of CDK1/CCNB1 (P14635 whole entry partner): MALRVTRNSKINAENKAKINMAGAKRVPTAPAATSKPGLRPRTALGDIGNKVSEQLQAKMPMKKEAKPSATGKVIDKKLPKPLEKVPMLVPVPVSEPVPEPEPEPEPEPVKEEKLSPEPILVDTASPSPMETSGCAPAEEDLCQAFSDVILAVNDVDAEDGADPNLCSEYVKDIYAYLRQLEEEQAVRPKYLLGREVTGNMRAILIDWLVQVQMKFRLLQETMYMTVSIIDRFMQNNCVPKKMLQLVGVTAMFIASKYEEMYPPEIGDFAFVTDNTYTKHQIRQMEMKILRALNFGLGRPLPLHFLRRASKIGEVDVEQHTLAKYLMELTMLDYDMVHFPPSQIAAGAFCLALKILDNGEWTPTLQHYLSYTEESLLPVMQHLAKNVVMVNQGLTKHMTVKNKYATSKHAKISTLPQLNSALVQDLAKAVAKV
Sequence of CDK6/CCND1 (Q00534 whole entry): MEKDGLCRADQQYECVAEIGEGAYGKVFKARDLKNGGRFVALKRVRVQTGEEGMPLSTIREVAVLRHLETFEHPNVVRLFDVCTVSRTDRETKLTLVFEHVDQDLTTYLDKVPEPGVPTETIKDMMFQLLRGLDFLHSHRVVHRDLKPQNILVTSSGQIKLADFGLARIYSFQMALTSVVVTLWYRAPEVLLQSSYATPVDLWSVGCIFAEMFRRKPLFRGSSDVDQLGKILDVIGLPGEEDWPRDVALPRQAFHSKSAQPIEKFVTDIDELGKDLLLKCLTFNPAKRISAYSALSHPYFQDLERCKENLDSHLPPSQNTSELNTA
Sequence of CDK6/CCND1 (P24385 whole entry partner): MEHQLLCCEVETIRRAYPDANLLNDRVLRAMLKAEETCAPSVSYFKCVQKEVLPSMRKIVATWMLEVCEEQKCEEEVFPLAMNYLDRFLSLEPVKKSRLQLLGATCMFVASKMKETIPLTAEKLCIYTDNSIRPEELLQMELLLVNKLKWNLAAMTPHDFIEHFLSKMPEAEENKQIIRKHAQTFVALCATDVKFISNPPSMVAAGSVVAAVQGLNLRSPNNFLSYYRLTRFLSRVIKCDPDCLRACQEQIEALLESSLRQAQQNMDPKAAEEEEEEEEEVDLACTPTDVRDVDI

As for `Cc1c(-c2nccc3cnc(Nc4ccc(S(=O)(=O)NC5CCOC5)cc4)cc23)ccc2c1cnn2CC(C)(C)O` (racemic) [Ex 770, 4-((5-(1-(2-hydroxy-2-methylpropyl)-4-methyl-1H-indazol-5-yl)-2,6-naphthyridin-3-yl)amino)-N-(tetrahydrofuran-3-yl)benzenesulfonamide], the IC50 at CDK2/CCNE1 (setting [1]) is less than 25 nM; on CDK1/CCNB1 (setting [2]) it was greater than 250 nM; at CDK4/CCND3 (setting [3]), 25 to 250 nM; at CDK6/CCND1 (setting [4]), 25 to 250 nM.

As to `Cc1c(-c2nccc3cnc(Nc4ccc(S(=O)(=O)NC5CCN(C)C5)cc4)cc23)ccc2c1cnn2CC(C)(C)O` (racemic) [Ex 771, 4-((5-(1-(2-hydroxy-2-methylpropyl)-4-methyl-1H-indazol-5-yl)-2,6-naphthyridin-3-yl)amino)-N-(1-methylpyrrolidin-3-yl)benzenesulfonamide], the IC50 at CDK2/CCNE1 (setting [1]) was less than 25 nM; at CDK1/CCNB1 (setting [2]), greater than 250 nM; on CDK4/CCND3 (setting [3]) it was 25 to 250 nM; on CDK6/CCND1 (setting [4]) it was 25 to 250 nM.

For the molecule `Cc1c(-c2nccc3cnc(Nc4ccc(S(=O)(=O)NC5CCNC5)cc4)cc23)ccc2c1cnn2CC(C)(C)O` (racemic) [Ex 791, 4-((5-(1-(2-hydroxy-2-methylpropyl)-4-methyl-1H-indazol-5-yl)-2,6-naphthyridin-3-yl)amino)-N-(pyrrolidin-3-yl)benzenesulfonamide], the IC50 was less than 25 nM at CDK2/CCNE1 (setting [1]); 25 to 250 nM on CDK1/CCNB1 (setting [5]); less than 25 nM at CDK4/CCND3 (<25 nM, read-out: CDK4/CCND IC50, column <25 nM); 25 to 250 nM on CDK6/CCND1 (setting [4]).

As for `Cc1c(-c2nccc3cnc(Nc4ccc(S(=O)(=O)NC5CCCNC5)cc4)cc23)ccc2c1cnn2CC(C)(C)O` (racemic) [Ex 792, 4-((5-(1-(2-hydroxy-2-methylpropyl)-4-methyl-1H-indazol-5-yl)-2,6-naphthyridin-3-yl)amino)-N-(piperidin-3-yl)benzenesulfonamide], the IC50 is less than 25 nM on CDK2/CCNE1 (setting [1]), greater than 250 nM at CDK1/CCNB1 (setting [2]), 25 to 250 nM on CDK4/CCND3 (setting [3]) and 25 to 250 nM on CDK6/CCND1 (setting [4]).

`COc1ccc(C(=O)N2CCC(Nc3cc4c(-c5ccc6c(cnn6CC(C)(C)O)c5C)nccc4cn3)C2)cc1` (racemic) [Ex 884, (3-((5-(1-(2-hydroxy-2-methylpropyl)-4-methyl-1H-indazol-5-yl)-2,6-naphthyridin-3-yl)amino)pyrrolidin-1-yl)(4-methoxyphenyl)methanone]: the IC50 at CDK2/CCNE1 (setting [1]) was less than 25 nM; on CDK1/CCNB1 (setting [2]), greater than 250 nM; on CDK4/CCND3 (setting [6]), greater than 250 nM; on CDK6/CCND1 (setting [7]), greater than 250 nM.

`Cc1c(-c2nccc3cnc(NC4CCN(C(=O)c5ccccc5)C4)cc23)ccc2c1cnn2CC(C)(C)O` (racemic) [Ex 885, (3-((5-(1-(2-hydroxy-2-methylpropyl)-4-methyl-1H-indazol-5-yl)-2,6-naphthyridin-3-yl)amino)pyrrolidin-1-yl)(phenyl)methanone]: the IC50 on CDK2/CCNE1 (setting [1]) is less than 25 nM; on CDK1/CCNB1 (setting [2]), greater than 250 nM; at CDK4/CCND3 (setting [6]) it was greater than 250 nM; at CDK6/CCND1 (setting [7]), greater than 250 nM.

For `Cc1c(-c2nccc3cnc(NC4CCN(C(=O)c5ccc(Cl)cc5)C4)cc23)ccc2c1cnn2CC(C)(C)O` (racemic) [Ex 903, (4-chlorophenyl)(3-((5-(1-(2-hydroxy-2-methylpropyl)-4-methyl-1H-indazol-5-yl)-2,6-naphthyridin-3-yl)amino)pyrrolidin-1-yl)methanone], the IC50 is less than 25 nM at CDK2/CCNE1 (setting [1]), greater than 250 nM on CDK1/CCNB1 (setting [2]), greater than 250 nM on CDK4/CCND3 (setting [6]) and greater than 250 nM on CDK6/CCND1 (setting [7]).

Consider `Cc1c(-c2nccc3cnc(NC4CCN(C(=O)c5cccnc5)C4)cc23)ccc2c1cnn2CC(C)(C)O` (racemic) [Ex 904, (3-((5-(1-(2-hydroxy-2-methylpropyl)-4-methyl-1H-indazol-5-yl)-2,6-naphthyridin-3-yl)amino)pyrrolidin-1-yl)(pyridin-3-yl)methanone], for which the IC50 is 25 to 250 nM at CDK2/CCNE1 (setting [8]), greater than 250 nM on CDK1/CCNB1 (setting [2]), greater than 250 nM at CDK4/CCND3 (setting [6]) and greater than 250 nM at CDK6/CCND1 (setting [7]).

For `Cc1c(-c2nccc3cnc(NC4CCCN(S(C)(=O)=O)C4)cc23)ccc2c1cnn2CC(C)(C)O` (racemic) [Ex 918, 2-methyl-1-(4-methyl-5-(7-((1-(methylsulfonyl)piperidin-3-yl)amino)-2,6-naphthyridin-1-yl)-1H-indazol-1-yl)propan-2-ol], the IC50 at CDK2/CCNE1 (setting [8]) was 25 to 250 nM; on CDK1/CCNB1 (setting [2]) it was greater than 250 nM; at CDK4/CCND3 (setting [6]), greater than 250 nM; at CDK6/CCND1 (setting [7]) it was greater than 250 nM.

As for `CS(=O)(=O)c1ccc(Nc2cc3c(C#CC45CCC(Cl)(CC4)CC5)nccc3cn2)cc1` (racemic) [Ex 944, 5-((4-chlorobicyclo[2.2.2]octan-1-yl)ethynyl)-N-(4-(methylsulfonyl)phenyl)-2,6-naphthyridin-3-amine], the IC50 at CDK2/CCNE1 (setting [1]) is less than 25 nM; on CDK1/CCNB1 (setting [2]) it was greater than 250 nM; at CDK4/CCND3 (setting [3]) it was 25 to 250 nM; on CDK6/CCND1 (setting [7]), greater than 250 nM.

Turning to `CS(=O)(=O)c1ccc(Nc2cc3c(C#CC45CC(C(N)=O)(C4)C5)nccc3cn2)cc1` (racemic) [Ex 945, 3-((7-((4-(methylsulfonyl)phenyl)amino)-2,6-naphthyridin-1-yl)ethynyl)bicyclo[1.1.1]pentane-1-carboxamide], the IC50 at CDK2/CCNE1 (setting [1]) was less than 25 nM; at CDK1/CCNB1 (setting [5]), 25 to 250 nM; at CDK4/CCND3 (setting [3]) it was 25 to 250 nM; on CDK6/CCND1 (setting [4]) it was 25 to 250 nM.

As to `CS(=O)(=O)c1ccc(Nc2cc3c(C#CC45CCC(C#N)(CC4)CC5)nccc3cn2)cc1` (racemic) [Ex 946, 4-((7-((4-(methylsulfonyl)phenyl)amino)-2,6-naphthyridin-1-yl)ethynyl)bicyclo[2.2.2]octane-1-carbonitrile], the IC50 was less than 25 nM on CDK2/CCNE1 (setting [1]), 25 to 250 nM on CDK1/CCNB1 (setting [5]), 25 to 250 nM on CDK4/CCND3 (setting [3]) and 25 to 250 nM at CDK6/CCND1 (setting [4]).

As for `CC1(O)C(=O)Nc2cc(C#Cc3nccc4cnc(Nc5ccc(S(C)(=O)=O)cc5)cc34)ccc21` (racemic) [Example 362, 3-hydroxy-3-methyl-6-((7-((4-(methylsulfonyl)phenyl)amino)-2,6-naphthyridin-1-yl)ethynyl)indolin-2-one], the IC50 at CDK2/CCNE1 (setting [9]) was less than 25 nM; on CDK1/CCNB1 (setting [10]), 25 to 250 nM; at CDK4/CCND3 (setting [11]), 25 to 250 nM; at CDK6/CCND1 (x = IC50 25-250 nM, read-out: CDK6/CCND IC50 (25-250 nM)), 25 to 250 nM.

Consider `CCC1(C)C(=O)Nc2cc(C#Cc3nccc4cnc(Nc5ccc(S(C)(=O)=O)cc5)cc34)ccc21` (racemic) [Example 390, 3-ethyl-3-methyl-6-((7-((4-(methylsulfonyl)phenyl)amino)-2,6-naphthyridin-1-yl)ethynyl)indolin-2-one], for which the IC50 was less than 25 nM on CDK2/CCNE1 (setting [9]); 25 to 250 nM on CDK1/CCNB1 (setting [10]); greater than 250 nM on CDK4/CCND3 (x = IC50 >250 nM, read-out: CDK4/CCND IC50 (>250 nM column)); greater than 250 nM on CDK6/CCND1 (setting [12]).

On to `CC1(CO)C(=O)Nc2cc(C#Cc3nccc4cnc(Nc5ccc(S(C)(=O)=O)cc5)cc34)ccc21` (racemic) [Example 391, 3-(hydroxymethyl)-3-methyl-6-((7-((4-(methylsulfonyl)phenyl)amino)-2,6-naphthyridin-1-yl)ethynyl)indolin-2-one], for which the IC50 is less than 25 nM on CDK2/CCNE1 (setting [9]), 25 to 250 nM at CDK1/CCNB1 (setting [10]), 25 to 250 nM on CDK4/CCND3 (setting [11]) and greater than 250 nM at CDK6/CCND1 (setting [12]).
